Assay results from BindingDB's records for patent US20240101559 (Dana-Farber Cancer Institute, 2024).

Target: Tyrosine-protein kinase JAK2 (Homo sapiens, UniProt O60674)
Assay: JAK2 Z-Lyte Biochemical Assay
Description: The JAK2 Z-Lyte biochemical assay was performed according to manufacturer's instructions (Life Technologies).

Sequence of Tyrosine-protein kinase JAK2 (O60674 whole entry): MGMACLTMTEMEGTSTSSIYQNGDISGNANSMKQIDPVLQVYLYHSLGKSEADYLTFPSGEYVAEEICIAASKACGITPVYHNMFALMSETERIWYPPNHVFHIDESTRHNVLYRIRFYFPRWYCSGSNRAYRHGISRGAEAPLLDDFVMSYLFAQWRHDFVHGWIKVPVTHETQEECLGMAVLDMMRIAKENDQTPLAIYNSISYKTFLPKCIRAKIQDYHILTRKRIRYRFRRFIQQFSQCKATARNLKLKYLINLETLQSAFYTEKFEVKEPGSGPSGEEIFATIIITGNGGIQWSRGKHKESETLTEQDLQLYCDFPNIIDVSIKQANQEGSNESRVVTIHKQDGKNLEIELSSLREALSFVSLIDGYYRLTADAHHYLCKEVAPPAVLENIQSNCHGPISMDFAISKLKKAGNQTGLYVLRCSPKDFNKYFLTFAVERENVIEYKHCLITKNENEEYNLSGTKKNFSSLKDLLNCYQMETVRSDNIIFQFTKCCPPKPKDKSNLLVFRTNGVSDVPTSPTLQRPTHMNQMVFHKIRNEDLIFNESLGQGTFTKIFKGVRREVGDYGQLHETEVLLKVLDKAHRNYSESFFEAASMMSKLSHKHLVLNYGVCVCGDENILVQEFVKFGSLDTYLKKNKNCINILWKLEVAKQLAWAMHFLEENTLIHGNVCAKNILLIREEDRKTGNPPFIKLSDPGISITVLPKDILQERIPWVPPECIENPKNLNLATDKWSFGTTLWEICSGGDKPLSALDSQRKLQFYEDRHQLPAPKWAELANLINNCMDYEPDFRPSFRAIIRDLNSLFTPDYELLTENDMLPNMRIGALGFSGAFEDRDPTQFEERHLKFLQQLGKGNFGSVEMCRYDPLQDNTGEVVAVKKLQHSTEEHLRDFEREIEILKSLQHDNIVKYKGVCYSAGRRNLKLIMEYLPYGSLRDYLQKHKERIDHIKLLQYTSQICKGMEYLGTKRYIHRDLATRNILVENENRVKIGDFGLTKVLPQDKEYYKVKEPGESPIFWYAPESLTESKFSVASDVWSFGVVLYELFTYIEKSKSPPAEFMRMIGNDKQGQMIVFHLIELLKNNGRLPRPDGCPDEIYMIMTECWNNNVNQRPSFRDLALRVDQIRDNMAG

Compound: CC(=O)Nc1cc(Oc2ccc3nc(Nc4cccc(C(C)(C)C#N)c4)n4c3c2CCC4)ccn1 [US20240101559, Compound I-2]
- IC50: 4.07 µM
